Patent publication US20250144069A1, “BILOBALIDE DERIVATIVE COMPOUNDS FOR TREATING NEUROLOGICAL DISEASES AND CANCERS” (The Chinese University of Hong Kong, priority 2023, published 2025)
Read-outs that look alike come from different tables or passages of the source.

Legend:
Format in all cases: cell-based, human
[1] = Single-dose CCK-8 cell viability screening (adherent cells); conditions: Homo sapiens, average of A549 and Jurkat % viability, 50 uM, 48 h
Procedure: (§1) In this example, the anti-cancer properties of the BB analogues described in Table 1d were evaluated. Single-dose screening approach is used for initial testing to assess the cytotoxic effect of the BB analogues (also referred to as ‘BB compounds’) on Jurkat cells (human T cell leukaemia cells) and A549 cells (human lung cancer cells).
(§2) Method for Adherent Cells (A549 Cells)
(§3) In this example, 5000 cells/100 uL were seeded in 96-well plates and incubate at 37° C.+5% CO2 overnight. Media were replaced with 100 uL of 50 uM compound per well in 6 replicates. The following controls were prepared.
(§4) Blank control: 100 uL 0.1% DMSO in media with no cells per well.
(§5) Positive control: 100 uL of 10 uM 5-flurouracil per well.
(§6) Negative control: 100 uL of 0.1% DMSO in media per well.
(§7) Each 96-well plate included 7 compounds and the complete set of controls (in 6 replicates).
(§8) Cells were incubated at 37° C.+5% CO2 for 46 hours. 10 uL of CCK8 solution was added to each well. Cells were then incubated at 37° C.+5% CO2 for 2 hours. Absorbance at 450 nm was measured using a multiplate reader.
(§9) Viability was calculated using the equation: […]
(§10) The benchmark in Table 2 was used to define the activities of each compound.

A549 cells = experiment: as above; conditions: Homo sapiens, A549, 48 h
Procedure: as §1, §2, §3, §4, §5, §6, §7, §8, §9, §10

Jurkat cells = experiment: Single-dose CCK-8 cell viability screening (suspension cells); conditions: Homo sapiens, Jurkat, 48 h
Procedure: as §1
Method for Suspension Cells (Jurkat Cells)
5000 cells/90 uL were seeded in 96-well plates. 10 uL of 500 uM compound (10×) was added to each well in 6 replicates. The following controls were prepared.
Blank control: 10 uL 1% DMSO in media with no cells per well.
Positive control: 10 uL of 100 uM 5-flurouracil (10×) per well.
Negative control: 10 uL of 1% DMSO in media (10×) per well.
Each 96-well plate included 7 BB analogues and the complete set of controls (in 6 replicates).
as §8, §9, §10

[2] = read-out: % Viability (50 uM, 48 h) A549
[3] = read-out: % Viability (50 uM, 48 h) Jurkat
[4] = A549 cells, 50 uM, 48 h, CCK-8, read-out: % Viability (50 uM, 48 h) A549
[5] = Jurkat cells, 50 uM, CCK-8, read-out: % Viability (50 uM, 48 h) Jurkat

SMILES | viability at 50 µM ([1]; A549, 48 h) [%] | viability at 50 µM (A549 cells; [2]) [%] | viability at 50 µM (Jurkat cells; [3]) [%] | viability at 50 µM (A549 cells; [4]) [%] | viability at 50 µM (Jurkat cells; [5]) [%] | viability at 50 µM [1] [%] | viability at 50 µM (A549 cells; read-out: % Viability (50 uM, 48 h) A549, A549 cells, 50 uM, 48 h, CCK-8) [%] | viability at 50 µM (Jurkat cells; read-out: % Viability (50 uM, 48 h) Jurkat, Jurkat cells, 50 uM, 48 h, CCK-8) [%]
CC(C)(C)[C@]1(O)C[C@@H]2OC(=O)C[C@@]23C(=O)O[C@@H]2N(c4cccc(C(F)(F)F)c4)C(=O)[C@H](OC(=O)c4ccccc4)[C@]213 [JW100, (3aS,5aS,8R,9R,10aS)-9-(tert-butyl)-9-hydroxy-2,4,7-trioxo-6-(3-(trifluoromethyl)phenyl)octahydro-4H,9H-furo [3″,2″:2′,3′]cyclopenta [1′,2′:3,4]furo [2,3-b]pyrrol-8-yl benzoate] | 61.1 | 54 | 68.2 | – | – | – | – | –
CC(C)(C)[C@]1(O)C[C@@H]2OC(=O)C[C@@]23C(=O)O[C@@H]2N(c4ccc(O)cc4)C(=O)[C@H](OC(=O)c4ccccc4)[C@]213 [JW103, (3aS,5aS,8R,9R,10aS)-9-(tert-butyl)-6-(4-hydroxyphenyl)-9-hydroxy-2,4,7-trioxodecahydrofuro [3″,2″:2′,3′]cyclopenta [1′,2′:3,4]furo [2,3-b]pyrrol-8-yl benzoate] | 92.2 | – | – | 102 | 82.2 | – | – | –
CC(C)(C)[C@]1(O)C[C@@H]2OC(=O)C[C@@]23C(=O)O[C@@H]2N(c4ccc(C#N)cc4)C(=O)[C@H](OC(=O)c4ccccc4)[C@]213 [JW107, (3aS,5aS,8R,9R,10aS)-9-(tert-butyl)-6-(4-cyanophenyl)-9-hydroxy-2,4,7-trioxodecahydrofuro [3″,2″:2′,3′]cyclopenta [1′,2′:3,4]furo [2,3-b]pyrrol-8-yl benzoate] | 72.7 | – | – | 75.2 | 70.2 | – | – | –
CC(C)(C)[C@]1(O)C[C@@H]2OC(=O)C[C@@]23C(=O)O[C@@H]2N(c4ccccc4)C(=O)[C@H](O)[C@]213 [JW116, (3aS,5aS,8R,8aS,9R,10aS)-9-(tert-butyl)-8,9-dihydroxy-6-phenyltetrahydro-4H,9H-furo[3″,2″:2′,3′]cyclopenta[1′,2′:3,4]furo[2,3-b]pyrrole-2,4,7(3H,8H)-trione] | 91.2 | 77.7 | 105 | – | – | – | – | –
CC(C)(C)[C@]1(O)C[C@@H]2OC(=O)C[C@@]23C(=O)O[C@@H]2N(C[C@H]4CCCO4)C(=O)[C@H](OC(=O)c4ccccc4)[C@]213 [P-5, (3aS,5aS,8R,8aS,9R,10aS)-9-(tert-butyl)-9-hydroxy-2,4,7-trioxo-6-(((R)-tetrahydrofuran-2-yl)methyl) octahydro-4H,9H-furo [3″,2″:2′,3′]cyclopenta [1′,2′:3,4]furo[2,3-b]pyrrol-8-yl benzoate] | 87.2 | – | – | 98.7 | 75.7 | – | – | –
CC(C)(C)[C@]1(O)C[C@@H]2OC(=O)C[C@@]23C(=O)O[C@@H]2N(c4cc(F)cc(F)c4)C(=O)[C@H](OC(=O)c4ccccc4)[C@]213 [P-19, (3aS,5aS,8R,8aS,9R,10aS)-9-(tert-butyl)-9-hydroxy-2,4,7-trioxo-6-(3,5-difluoro-phenyl)octahydro-4H,9H-furo [3″,2″:2′,3′]cyclopenta [1′,2′:3,4]furo [2,3-b]pyrrol-8-yl benzoate] | 60.2 | – | – | 50.2 | 70.2 | – | – | –
CC(C)(C)[C@]1(O)C[C@@H]2OC(=O)C[C@@]23C(=O)O[C@@H]2N(c4ccc(F)cc4)C(=O)[C@H](OC(=O)c4ccccc4)[C@]213 [P-28, (3aS,5aS,8R,9R,10aS)-9-(tert-butyl)-9-hydroxy-2,4,7-trioxo-6-(4-fluorophenyl)octahydro-4H,9H-furo [3″,2″:2′,3′]cyclopenta [1′,2′:3,4]furo [2,3-b]pyrrol-8-yl benzoate] | 72.7 | 76.2 | 69.2 | – | – | – | – | –
Cc1ccc(N2C(=O)[C@H](OC(=O)c3ccccc3)[C@@]34[C@@H]2OC(=O)[C@@]32CC(=O)O[C@H]2C[C@@]4(O)C(C)(C)C)cc1 [P-30, (3aS,5aS,8R,9R,10aS)-9-(tert-butyl)-9-hydroxy-2,4,7-trioxo-6-(toluyl)octahydro-4H,9H-furo [3″,2″:2′,3′]cyclopenta [1′,2′:3,4]furo [2,3-b]pyrrol-8-yl benzoate] | 59.1 | – | – | 56.9 | 61.3 | – | – | –
Cc1cccc(N2C(=O)[C@H](OC(=O)c3ccccc3)[C@@]34[C@@H]2OC(=O)[C@@]32CC(=O)O[C@H]2C[C@@]4(O)C(C)(C)C)c1 [P-33, (3aS,5aS,8R,9R,10aS)-9-(tert-butyl)-9-hydroxy-2,4,7-trioxo-6-(3-methylphenyl)octahydro-4H,9H-furo [3″,2″:2′,3′]cyclopenta [1′,2′:3,4]furo [2,3-b]pyrrol-8-yl benzoate] | 63.5 | – | – | 61.1 | 66 | – | – | –
Cc1ccccc1N1C(=O)[C@H](OC(=O)c2ccccc2)[C@@]23[C@@H]1OC(=O)[C@@]21CC(=O)O[C@H]1C[C@@]3(O)C(C)(C)C [P-34, (3aS,5aS,8R,9R,10aS)-9-(tert-butyl)-9-hydroxy-2,4,7-trioxo-6-(2-methylphenyl)octahydro-4H,9H-furo [3″,2″:2′,3′]cyclopenta [1′,2′:3,4]furo [2,3-b]pyrrol-8-yl benzoate] | 77 | – | – | 80.2 | 73.8 | – | – | –
CC(C)(C)[C@]1(O)C[C@@H]2OC(=O)C[C@@]23C(=O)O[C@@H]2NC(=O)[C@H](OC(=O)c4ccccc4)[C@]213 [XBB-004, (3aS,5aS,8R,8aS,9R,10aS)-9-(tert-butyl)-9-hydroxy-2,4,7-trioxooctahydro-4H,9H-furo[3″,2″:2′,3′]cyclopenta[1′,2′:3,4]furo[2,3-b]pyrrol-8-yl benzoate] | – | 98.5 | 95 | – | – | 96.7 | – | –
C=C(C)[C@@]1(C)C[C@@H]2OC(=O)C[C@@]23C(=O)O[C@@H]2OC(=O)[C@H](OC(C)=O)[C@]213 [XBB-009] | – | 103 | 107 | – | – | 105 | – | –
CC(=O)O[C@H]1C(=O)N[C@H]2OC(=O)[C@]34CC(=O)O[C@H]3C=C(C(C)(C)C)[C@@]214 [XBB-010, (3aS,5aS,8R,8aS,10aS)-9-(tert-butyl)-2,4,7-trioxo-2,3,5a,6,7,8-hexahydro-4H,10aH-furo[3″,2″:2′,3′]cyclopenta[1′,2′:3,4]furo[2,3-b]pyrrol-8-yl acetate] | 114 | – | – | – | – | – | 112 | 115
C=C(C)[C@@]1(C)C[C@@H]2OC(=O)C[C@@]23C(=O)O[C@@H]2NC(=O)[C@H](O)[C@]213 [XBB-013] | – | 100 | 107 | – | – | 104 | – | –
CC(C)(C)[C@]1(O)C[C@@H]2OC(=O)C[C@@]23C(=O)O[C@@H]2N(Cc4ccccc4)C(=O)[C@H](OC(=O)c4ccccc4)[C@]213 [XBB-016] | 106 | – | – | 105 | 107 | – | – | –
COc1ccc(CN2C(=O)[C@H](OC(=O)c3ccccc3)[C@@]34[C@@H]2OC(=O)[C@@]32CC(=O)O[C@H]2C[C@@]4(O)C(C)(C)C)c(OC)c1 [XBB-018, (3aS,5aS,8R,8aS,9R,10aS)-6-(2,4-dimethoxy-benzyl-9-(tert-butyl)-9-hydroxy-2,4,7-trioxooctahydro-4H,9H-furo [3″,2″:2′,3′]cyclopenta [1′,2′:3,4]furo [2,3-b]pyrrol-8-yl benzoate] | 94.5 | – | – | 86.5 | 102 | – | – | –
CC(C)(C)OC(=O)N1CCC(CCN2C(=O)[C@H](OC(=O)c3ccccc3)[C@@]34[C@@H]2OC(=O)[C@@]32CC(=O)O[C@H]2C[C@@]4(O)C(C)(C)C)CC1 [XBB-023, tert-butyl 4-(2-((3aS,5aS,8R,8aS,9R,10aS)-8-(benzoyloxy)-9-(tert-butyl)-9-hydroxy-2,4,7-trioxohexahydro-4H,9H-furo[3″,2″:2′,3′]cyclopenta[1′,2′:3,4]furo[2,3-b]pyrrol-6(5aH)-yl)ethyl)piperidine-1-carboxylate] | 71.7 | – | – | 72.1 | 71.3 | – | – | –
CC(C)(C)OC(=O)N1CCC(CCCN2C(=O)[C@H](OC(=O)c3ccccc3)[C@@]34[C@@H]2OC(=O)[C@@]32CC(=O)O[C@H]2C[C@@]4(O)C(C)(C)C)CC1 [XBB-025] | 91.7 | – | – | 100 | 83.3 | – | – | –
